In patent publication US20240124460A1, “METHODS AND COMPOSITIONS FOR TARGETED PROTEIN DEGRADATION” (Ranok Therapeutics (Hangzhou) Co. Ltd., priority 2020, published 2024):
pEC50: −log10 of the molar value.

Test system: MV-4-11 human acute myeloid leukemia
Test: MV-4-11 CCK-8 proliferation assay
Format: cell-based
Settings: Homo sapiens, MV4-11; MV-4-11 cells, 72 hr
Experimental: The following cancer cell lines were employed: A549 human lung carcinoma (ATCC, #CCL-185); BT-474 human breast carcinoma (ATCC, #HTB-20); MDA-MB-231 human breast adenocarcinoma (ATCC, #CRM−HTB-26); MDA-MB-468 human breast adenocarcinoma (ATCC, #HTB-132); MV-4-11 human acute myeloid leukemia (ATCC, #CRL-9591); and U-87 MG human glioblastoma (ATCC, #HTB-14). Cell lines were cultured essentially according to ATCC recommendations.
3-fold serial dilutions of each test compound were prepared ranging from 20 μM to 1.02 nM.
% Inhibition=100−(D−B)/(S−B)*100%. • S: Absorbance of cells treated with DMSO • D: Absorbance of compound-treated cells • B: Absorbance of medium with DMSO without cells

Compound | pEC50
CCOc1cc(N2CCC(C(=O)N3CCC(CN4CCC(Oc5ccc(-c6ccc(NC(=O)c7ccc(OC)c(-c8cccc(OC)c8)c7)cc6)c(OCCCN(C)C)c5)CC4)CC3)CC2)ccc1Nc1ncc2c(n1)N(C)c1ccccc1C(=O)N2C [Compound 153, N-(4′-((1-((1-(1-(4-((5,11-dimethyl-6-oxo-6,11-dihydro-5H-benzo[e]pyrimido[5,4-b][1,4]diazepin-2-yl)amino)-3-ethoxyphenyl)piperidine-4-carbonyl)piperidin-4-yl)methyl)piperidin-4-yl)oxy)-2′-(3-(dimethylamino)propoxy)-[1,1′-biphenyl]-4-yl)-3′,6-dimethoxy-[1,1′-biphenyl]-3-carboxamide] | < 6.00
CCOc1cc(N2CCC(C(=O)N3CCC(CN4CCC(Oc5ccc(-c6ccc(NC(=O)c7ccc(OC)c(-c8cccc(OC)c8)c7)cc6)cc5)CC4)CC3)CC2)ccc1Nc1ncc2c(n1)N(C)c1ccccc1C(=O)N2C [Compound 154, N-(4′-((1-((1-(1-(4-((5,11-dimethyl-6-oxo-6,11-dihydro-5H-benzo[e]pyrimido[5,4-b][1,4]diazepin-2-yl)amino)-3-ethoxyphenyl)piperidine-4-carbonyl)piperidin-4-yl)methyl)piperidin-4-yl)oxy)-[1,1′-biphenyl]-4-yl)-3′,6-dimethoxy-[1,1′-biphenyl]-3-carboxamide] | < 6.00
CCOc1cc(N2CCC(C(=O)N3CCC(CN4CCC(Oc5ccc(-c6ccc(NC(=O)c7ccc(OC)c(-c8cccc(OC)c8)c7)cc6)c(OCCCN(C)C)c5)CC4)CC3)CC2)ccc1Nc1ncc2c(n1)N(S(C)(=O)=O)c1ccccc1C(=O)N2C [Compound 155, N-(2′-(3-(dimethylamino)propoxy)-4′-((1-((1-(1-(3-ethoxy-4-((5-methyl-11-(methylsulfonyl)-6-oxo-6,11-dihydro-5H-benzo[e]pyrimido[5,4-b][1,4]diazepin-2-yl)amino)phenyl)piperidine-4-carbonyl)piperidin-4-yl)methyl)piperidin-4-yl)oxy)-[1,1′-biphenyl]-4-yl)-3′,6-dimethoxy-[1,1′-biphenyl]-3-carboxamide] | < 6.00
CCOc1cc(N2CCC(C(=O)N3CCC(CN4CCC(Oc5ccc(-c6ccc(NC(=O)c7ccc(OC)c(-c8cccc(OC)c8)c7)cc6)cc5)CC4)CC3)CC2)ccc1Nc1ncc2c(n1)N(S(C)(=O)=O)c1ccccc1C(=O)N2C [Compound 156, N-(4′-((1-((1-(1-(3-ethoxy-4-((5-methyl-11-(methylsulfonyl)-6-oxo-6,11-dihydro-5H-benzo[e]pyrimido[5,4-b][1,4]diazepin-2-yl)amino)phenyl)piperidine-4-carbonyl)piperidin-4-yl)methyl)piperidin-4-yl)oxy)-[1,1′-biphenyl]-4-yl)-3′,6-dimethoxy-[1,1′-biphenyl]-3-carboxamide] | < 6.00
CCOc1cc(N2CCC(C(=O)NCCCOc3ccc(-c4ccc(NC(=O)c5ccc(OC)c(-c6cccc(OC)c6)c5)cc4)c(OCCCN(C)C)c3)CC2)ccc1Nc1ncc2c(n1)N(S(C)(=O)=O)c1ccccc1C(=O)N2C [Compound 157, N-(3-((4′-(3′,6-dimethoxy-[1,1′-biphenyl]-3-carboxamido)-2-(3-(dimethylamino)propoxy)-[1,1′-biphenyl]-4-yl)oxy)propyl)-1-(3-ethoxy-4-((5-methyl-11-(methylsulfonyl)-6-oxo-6,11-dihydro-5H-benzo[e]pyrimido[5,4-b][1,4]diazepin-2-yl)amino)phenyl)piperidine-4-carboxamide] | < 6.00
CCOc1cc(N2CCC(C(=O)N3CCC(COc4ccc(-c5ccc(NC(=O)c6ccc(OC)c(-c7cccc(OC)c7)c6)cc5)c(OCCCN(C)C)c4)CC3)CC2)ccc1Nc1ncc2c(n1)N(S(C)(=O)=O)c1ccccc1C(=O)N2C [Compound 158, N-(2′-(3-(dimethylamino)propoxy)-4′-((1-(1-(3-ethoxy-4-((5-methyl-11-(methylsulfonyl)-6-oxo-6,11-dihydro-5H-benzo[e]pyrimido[5,4-b][1,4]diazepin-2-yl)amino)phenyl)piperidine-4-carbonyl)piperidin-4-yl)methoxy)-[1,1′-biphenyl]-4-yl)-3′,6-dimethoxy-[1,1′-biphenyl]-3-carboxamide] | < 6.00
